Values quoted from earlier work, collected in US20080057142A1, “COMPOSITIONS AND METHODS FOR WEIGHT-LOSS AND WEIGHT-LOSS MAINTENANCE IN DAYTIME AND NIGHTTIME FORMULATION” (priority 2005, published 2008).

Conditions: EGCG, but not related catechins

**Q.** Which body weight does the source give for epigallocatechin-3-gallate [EGCG] here?
**A.** Its body weight is “reduced body weight”.

**Q.** And the food intake?
**A.** Its food intake is “significantly reduced food intake”.
